Results: patent US20220056019A1, “FARNESOID X RECEPTOR AGONISTS AND USES THEREOF” (Metacrine, Inc., priority 2018, published 2022)

The compounds below were run against T1, hFXR (Homo sapiens, UniProt Q96RI1) (assay: In Vitro FXR Assay (TK): TK-ECRE-luc reporter in transfected CV-1 cells). Conditions: 18 hrs incubation, luminescence.
T1 construct: expressed in transfected cells; host or cells: CV-1 cells
T1 sequence (Q96RI1 1-486): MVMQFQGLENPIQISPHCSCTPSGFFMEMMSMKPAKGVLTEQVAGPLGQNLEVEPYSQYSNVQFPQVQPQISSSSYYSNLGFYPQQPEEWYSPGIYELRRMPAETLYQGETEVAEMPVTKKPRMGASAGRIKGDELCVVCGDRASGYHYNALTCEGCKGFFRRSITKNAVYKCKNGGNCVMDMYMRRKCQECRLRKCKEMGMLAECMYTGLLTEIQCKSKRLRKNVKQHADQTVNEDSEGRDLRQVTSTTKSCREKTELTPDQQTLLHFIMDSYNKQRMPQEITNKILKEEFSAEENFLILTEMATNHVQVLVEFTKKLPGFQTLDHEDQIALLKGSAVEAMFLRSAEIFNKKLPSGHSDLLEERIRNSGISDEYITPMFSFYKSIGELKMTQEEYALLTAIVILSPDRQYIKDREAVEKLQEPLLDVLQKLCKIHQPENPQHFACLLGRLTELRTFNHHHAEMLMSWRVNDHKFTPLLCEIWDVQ
T1 sequence (P19793 1-462 partner): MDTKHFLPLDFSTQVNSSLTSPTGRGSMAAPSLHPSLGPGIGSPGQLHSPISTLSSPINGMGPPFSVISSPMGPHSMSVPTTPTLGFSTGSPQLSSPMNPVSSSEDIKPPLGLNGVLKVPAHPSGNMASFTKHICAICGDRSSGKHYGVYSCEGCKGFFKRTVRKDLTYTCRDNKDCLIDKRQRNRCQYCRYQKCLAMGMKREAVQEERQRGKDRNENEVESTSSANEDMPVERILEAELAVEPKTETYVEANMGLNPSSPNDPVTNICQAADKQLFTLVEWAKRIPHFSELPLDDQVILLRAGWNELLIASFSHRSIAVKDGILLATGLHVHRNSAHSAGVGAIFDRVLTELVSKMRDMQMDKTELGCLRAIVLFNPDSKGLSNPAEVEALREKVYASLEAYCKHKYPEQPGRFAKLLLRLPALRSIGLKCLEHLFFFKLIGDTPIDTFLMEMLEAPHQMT
Type: cell-based
Method in brief: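 CV-1 cells transiently cotransfected with hFXR, hRXR, TK-ECRE-luc reporter and pCMX-YFP plasmids in charcoal-stripped serum medium. Serially diluted compounds added for 18 h at 37° C., then cells lysed and luciferase luminescence measured.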

`CC(C)n1cc(-c2ccnc(N(CC34CCC(C5CCC(C)(C)CC5)(CC3)CC4)C(=O)[C@H]3CC[C@H](OC(=O)N4CC(O)C4)CC3)c2)cn1` [Compound 26.19, 4-(((4-(4,4-Dimethylcyclohexyl)bicyclo[2.2.2]octan-1-yl)methyl)(4-(1-isopropyl-1H-pyrazol-4-yl)pyridin-2-yl)carbamoyl)cyclohexyl trans-3-hydroxyazetidine-1-carboxylate] and `COc1ccc(C23CCC(CN(c4cc(-c5cnn(C(C)C(F)(F)F)c5)ccn4)C(=O)[C@H]4CC[C@H](OC(=O)N5CC(O)C5)CC4)(CC2)CC3)cc1C` (stereo partly drawn) [Compound 26.11, 4-(((4-(4-Methoxy-3-methylphenyl)bicyclo[2.2.2]octan-1-yl)methyl)(4-(1-(1,1,1-trifluoropropan-2-yl)-1H-pyrazol-4-yl)pyridin-2-yl)carbamoyl)cyclohexyl trans-3-hydroxyazetidine-1-carboxylate] cannot be ordered by EC50: 50 to 1000 nM for the first, no more than 50 nM for the second.

`COc1ccc([C@H]2CC[C@H](CN(c3cccc(-c4cnn(C(C)C)c4)c3)C(=O)[C@H]3CC[C@H](CNC(=O)C(C)C)CC3)CC2)cc1C` [Compound 12.02, (trans)-4-(Isobutyramidomethyl)-i-(3-(1-isopropyl-1H-pyrazol-4-yl)phenyl)-N-(((trans)-4-(4-methoxy-3-methylphenyl)cyclohexyl)methyl) cyclohexanecarboxamide] and `COc1ccc([C@H]2CC[C@H](CN(c3cccc(-c4cnn(C(C)C)c4)c3)C(=O)[C@H]3CC[C@H](CNS(=O)(=O)C(C)C)CC3)CC2)cc1C` [Compound 12.04, (trans)-N-(3-(1-Isopropyl-1H-pyrazol-4-yl)phenyl)-N-(((trans)-4-(4-methoxy-3-methylphenyl)cyclohexyl)methyl)-4-((1-methylethylsulfonamido)methyl)cy-clohexanecarboxamide] fall in the same range of EC50: 50 to 1000 nM for the first, 50 to 1000 nM for the second.

`COc1ccc(C23CCC(CN(c4cccc(-c5cnn(C(C)C)c5)n4)C(=O)[C@H]4CC[C@H](OC(=O)N5CC(O)C5)CC4)(CC2)CC3)cc1C` [Compound 23.25, 4-((6-(1-Isopropyl-1H-pyrazol-4-yl)pyridin-2-yl)((4-(4-methoxy-3-methylphenyl)bicyclo[2.2.2]octan-1-yl)methyl)carba-moyl)cyclohexyl trans-3-hydroxy-azetidine-1-carboxylate] and `COc1ccc(C23CCC(CN(c4cc(-c5cnc(C(C)C)o5)ccn4)C(=O)[C@H]4CC[C@H](OC(=O)N5CC(O)C5)CC4)(CC2)CC3)cc1C` [Compound 4.25, 4-((4-(2-Isopropyloxazol-5-yl)pyridin-2-yl)((4-(4-methoxy-3-methylphenyl)bicyclo[2.2.2]octan-1-yl)methyl)carbamoyl) cyclohexyl 3-hydroxyazetidine-trans-1-carboxylate] cannot be ordered by EC50: no more than 50 nM for the first, no more than 50 nM for the second.

`COc1ccc([C@H]2CC[C@H](CN(c3cc(-c4cc(C5CC5)on4)ccn3)C(=O)[C@H]3CC[C@H](OC(=O)N4CC(O)C4)CC3)CC2)cc1C` [Compound 2.09, trans-4-((4-(5-Cyclopropylisoxazol-3-yl)pyridin-2-yl)((trans-4-(4-methoxy-3-methylphenyl)cyclohexyl)methyl)carbamoyl)cyclohexyl 3-hydroxyazetidine-1-carboxylate] and `COc1ccc([C@H]2CC[C@H](CN(c3cc(-c4cnn(C(C)C)c4)ccn3)C(=O)[C@H]3CC[C@H](OC(=O)N4CC(OC)C4)CC3)CC2)cc1C` [Compound 2.18, trans-4-((4-(1-Isopropyl-1H-pyrazol-4-yl)pyridin-2-yl) ((trans-4-(4-methoxy-3-methylphenyl)cyclohexyl)methyl)carbamoyl) cyclohexyl 3-methoxyazetidine-1-carboxylate] cannot be ordered by EC50: no more than 50 nM for the first, no more than 50 nM for the second.

`CC(C)c1ccc(C23CCC(CN(c4nccc(-c5cnn(C(C)C)c5)n4)C(=O)[C@H]4CC[C@H](OC(=O)N5CC(O)C5)CC4)(CC2)CC3)cc1` [Compound 4.62, 4-((4-(1-Isopropyl-1H-pyrazol-4-yl)pyrimidin-2-yl)((4-(4-isopropylphenyl)bicyclo[2.2.2]octan-1-yl)methyl)carbamoyl)(trans-cyclohexyl) 3-hydroxyazetidine-1-carboxylate] and `COc1ccc(C23CCC(CN(c4cc(-c5nnc(C(C)C)o5)ccn4)C(=O)[C@H]4CC[C@H](OC(=O)N5CC(O)C5)CC4)(CC2)CC3)cc1C` [Compound 26.12, 4-((4-(5-Isopropyl-1,3,4-oxadiazol-2-yl)pyridin-2-yl)((4-(4-methoxy-3-methylphenyl)bicyclo[2.2.2]octan-1-yl)methyl)carbamoyl)cyclohexyl trans-3-hydroxyazetidine-1-carboxylate] cannot be ordered by EC50: no more than 50 nM for the first, 50 to 1000 nM for the second.

`COc1ccc([C@H]2CC[C@H](CN(c3cccc(-c4cnn(C(C)C)c4)c3)C(=O)[C@H]3CC[C@H](NC(=O)OCCO)CC3)CC2)cc1C` [Compound 6.03, 2-Hydroxyethyl (trans-4-((3-(1-isopropyl-1H-pyrazol-4-yl)phenyl)((trans-4-(4-methoxy-3-methylphenyl)cyclohexyl)meth-yl)carbamoyl)cyclohexyl)carbamate] and `CCC(=O)N[C@H]1CC[C@H](C(=O)N(C[C@H]2CC[C@H](c3ccc(OC)c(C)c3)CC2)c2cccc(-c3cnn(C(C)C)c3)c2)CC1` [Compound 10, trans-N-(3-(1-Isopropyl-1H-pyrazol-4-yl)phenyl)-N-((trans-4-(4-methoxy-3-methylphenyl)cyclohexyl)methyl)-4-propionamidocyclohexanecarboxamide] cannot be ordered by EC50: no more than 50 nM for the first, no more than 50 nM for the second.

`COc1ccc([C@H]2CC[C@H](CN(c3cccc(-c4cnn(C(C)C)c4)c3)C(=O)[C@H]3CC[C@H](OC(=O)NCC(C)F)CC3)CC2)cc1C` (stereo partly drawn) [Compound 5.05, trans-4-((3-(1-Isopropyl-1H-pyrazol-4-yl)phenyl)(((trans)-4-(4-methoxy-3-methylphenyl)cyclohexyl)methyl)carbamoyl)cyclohexyl (2-fluoropropyl)carbamate] and `COc1ccc([C@H]2CC[C@H](CN(c3cc(-c4cnn(C(C)C)c4)ccn3)C(=O)[C@H]3CC[C@H](OCCCO)CC3)CC2)cc1C` [Compound 16.01, trans-4-(3-Hydroxypropoxy)-N-(4-(1-isopropyl-1H-pyrazol-4-yl)pyridin-2-yl)-N-((trans-4-(4-methoxy-3-methylphenyl)cyclohexyl)methyl)cyclo-hexanecarboxamide] cannot be ordered by EC50: no more than 50 nM for the first, no more than 50 nM for the second.

`COc1ccc([C@H]2CC[C@H](CN(c3cccc(-c4coc(C5CC5)n4)c3)C(=O)[C@H]3CC[C@H](C(C)(C)O)CC3)CC2)nc1C` [Compound 19, trans-N-(3-(2-Cyclopropyloxazol-4-yl)phenyl)-4-(2-hydroxypropan-2-yl)-N-((trans-4-(5-methoxy-6-methylpyridin-2-yl)cyclohexyl)methyl)cyclohexanecar-boxamide] and `COc1ccc([C@H]2CC[C@H](CN(c3cc(-c4cnn(C(C)C)c4)ccn3)C(=O)[C@H]3CC[C@H](OC(=O)N4CCOCC4)CC3)CC2)cc1C` [Compound 2.16, trans-4-((4-(1-Isopropyl-1H-pyrazol-4-yl)pyridin-2-yl)(((trans)-4-(4-methoxy-3-methylphenyl)cyclohexyl)methyl)carbamoyl)cyclohexyl morpholine-4-carboxylate] cannot be ordered by EC50: no more than 50 nM for the first, no more than 50 nM for the second.

`COc1ccc(C23CCC(CN(c4cc(-c5cnn(C(C)C)c5)ccn4)C(=O)[C@H]4CC[C@H](NC(C)=O)CC4)(CC2)CC3)cc1C` [Compound 10.05, trans-4-Acetamido-N-(4-(1-isopropyl-1H-pyrazol-4-yl)pyridin-2-yl)-N-((4-(4-methoxy-3-methylphenyl)bicyclo[2.2.2]octan-1-yl)methyl)cyclohexane-carboxamide] and `COc1ccc(C23CCC(CN(c4cc(-c5cnc(C(C)C)s5)ccn4)C(=O)[C@H]4CC[C@H](NC(C)=O)CC4)(CC2)CC3)cc1C` [Compound 9.04, (trans)-4-Acetamido-N-(4-(2-isopropylthiazol-5-yl)pyridin-2-yl)-N-((4-(4-methoxy-3-methylphenyl)bicyclo[2.2.2]octan-1-yl)methyl)cyclohexanecarboxamide] cannot be ordered by EC50: no more than 50 nM for the first, no more than 50 nM for the second.

Compound `COc1ncc([C@H]2CC[C@H](CN(c3cc(-c4cnn(C(C)C)c4)ccn3)C(=O)[C@H]3CC[C@H](OC(=O)N4CC(N(C)C)C4)CC3)CC2)cc1C` [Compound 1.04, trans-4-((4-(1-Isopropyl-1H-pyrazol-4-yl)pyridin-2-yl)(((trans)-4-(6-methoxy-5-methylpyridin-3-yl)cyclohexyl)methyl)carbamoyl) cyclohexyl 3-(dimethylamino)azetidine-1-carboxylate] has an EC50 of no more than 50 nM.
